# Measured values reported in patent publication US11130769B2 (Prelude Therapeutics Incorporated, priority 2018, dated 2021).
# Several values for one entry are separate records, joined by “and”; a condition that tells them apart may be missing. Equal entries are not always repeated. Where two headings read alike, the source gives them in different places.
# Experiments:
# [1] = not given; remark: listed apart in the source
# MCL-1 = MCL-1 (Homo sapiens (Human), UniProt Q07820); assay: Cell free Mcl-1:Bim affinity assay (fluorescence polarization competition); format: binding; conditions: 15 nM MCL-1, 5 nM FITC-Bim, 1 hour at room temperature; class symbols; read-out: BIM_Ki
# Chain of MCL-1 (Q07820 whole entry): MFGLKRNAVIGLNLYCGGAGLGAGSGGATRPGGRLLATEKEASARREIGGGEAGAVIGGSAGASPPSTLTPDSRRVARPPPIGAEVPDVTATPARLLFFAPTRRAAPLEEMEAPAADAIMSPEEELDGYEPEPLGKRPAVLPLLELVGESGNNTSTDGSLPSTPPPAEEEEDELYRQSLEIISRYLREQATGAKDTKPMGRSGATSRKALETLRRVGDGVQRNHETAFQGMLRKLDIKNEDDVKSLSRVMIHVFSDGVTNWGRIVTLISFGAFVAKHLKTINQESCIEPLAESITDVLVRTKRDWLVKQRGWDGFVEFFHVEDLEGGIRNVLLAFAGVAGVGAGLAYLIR
# Procedure, shortened: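 Fluorescence polarization competition: 10-point 3-fold compound dilutions displaced 5 nM FITC-Bim from 15 nM MCL-1 over 1 h at room temperature. Ki was derived from the fitted IC50 using the Nikolovska-Coleska equation, with percent inhibition normalized to DMSO and positive controls.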
# H929 cells = assay: Cell viability assay (H929 10 FBS); format: cell-based; conditions: Homo sapiens, NCI-H929, 24 hours, read-out: H929_10FBS IC50
# Procedure, shortened: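 ATP-based luminescence (CellTiter-Glo or ATPlite 1 Step, 30-60 min at RT) gauged viability of H929 myeloma cells after 24 h compound treatment at 37 °C. Cells plated at 4000 per well in 10% FBS RPMI 1640 supplemented with pyruvate, HEPES and glucose.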
# [2] = from C=CCN(C(=O)OC(C)(C)C)[C@H](C)C(=O)NS(=O)(=O)c1ccc2c(c1)N(C[C@@H]1CC[C@H]1[C@@H](O)C=C)C[C@@]1(CCCc3cc(Cl)ccc31)CO2, rcm bond, 16-membered ring, Zhan Catalyst 1B, DCE, 1.8 mM, 40.0 °C, 3.0 h
# [3] = from C=CC(C)OC(C)(C)C(=O)NS(=O)(=O)c1ccc2c(c1)N(C[C@@H]1CC[C@H]1[C@@H](O)C=C)C[C@@]1(CCCc3cc(Cl)ccc31)CO2, rcm bond, 16-membered ring, Zhan catalyst, DCE, 2.1 mM, 45.0 °C, 2.0 h
smiles,measurement,setting,value
C[C@@H]1C(=O)NS(=O)(=O)c2ccc3c(c2)N(C[C@@H]2CC[C@H]2[C@@H](O)/C=C/CN1C(=O)OC(C)(C)C)C[C@@]1(CCCc2cc(Cl)ccc21)CO3,"ring closure, isolated yield",[2],44%
CC1(C)OC/C=C/[C@](C)(O)[C@@H]2CC[C@H]2CN2C[C@@]3(CCCc4cc(Cl)ccc43)COc3ccc(cc32)S(=O)(=O)NC1=O,"ring closure, yield after HPLC","[1]; from C=CCOC(C)(C)C(=O)NS(=O)(=O)c1ccc2c(c1)N(C[C@@H]1CC[C@H]1[C@@](C)(O)C=C)C[C@@]1(CCCc3cc(Cl)ccc31)CO2, rcm bond, 16-membered ring, Zhan catalyst, DCE, 1.6 mM, 45.0 °C, 2.0 h",3.3%
"CN1CCOC(C)(C)C(=O)NS(=O)(=O)c2ccc3c(c2)N(C[C@@H]2CC[C@H]2C1=O)C[C@@]1(CCCc2cc(Cl)ccc21)CO3 [Example 110, (3R,6R,22S)-6′-Chloro-8,12,12-trimethyl-15,15-dioxo-spiro[11,20-dioxa-thia-1,8,14-triazatetracyclo[14.7.2.03,6.019,24]pentacosa-16(25),17,19(24)-triene-22,1′-tetralin]-7,13-dione]",Ki,MCL-1,1 to 100 nM
same,IC50,H929 cells,> 1000 nM
same,"ring closure, yield after HPLC","[1]; from CNCCOC(C)(C)C(=O)NS(=O)(=O)c1ccc2c(c1)N(C[C@@H]1CC[C@H]1C(=O)O)C[C@@]1(CCCc3cc(Cl)ccc31)CO2, amide bond, 16-membered ring, HATU/DIEA, DMF, 6.0 mM, 20.0 °C, 1.0 h",25%
"O=C1Cc2cncc(c2)OC[C@@H]2CC[C@H]2CN2C[C@@]3(CCCc4cc(Cl)ccc43)COc3ccc(cc32)S(=O)(=O)N1 [Example 104, (3R,6R,24S)-6′-Chloro-17,17-dioxo-spiro[8,22-dioxa-17-thia-1,11,16-triazapentacyclo[16.7.2.19,13.03,6.021,26]octacosa-9(28),10,12,18(27),19,21(26)-hexaene-24,1′-tetralin]-15-one]",Ki,MCL-1,< 1 nM
same,"ring closure, isolated yield","from NS(=O)(=O)c1ccc2c(c1)N(C[C@@H]1CC[C@H]1COc1cncc(CC(=O)O)c1)C[C@@]1(CCCc3cc(Cl)ccc31)CO2, amide bond, 16-membered ring, EDCI/DMAP, DCM/DMF 9:1, 12.0 mM, 16.0 h",28%
same,IC50,H929 cells,> 1000 nM
CC(C)(C)OC(=O)N1CC=C[C@H](O)[C@@H]2CC[C@H]2CN2C[C@@]3(CCCc4cc(Cl)ccc43)COc3ccc(cc32)S(=O)(=O)NC(=O)C12CCC2,"ring closure, isolated yield","from C=CCN(C(=O)OC(C)(C)C)C1(C(=O)NS(=O)(=O)c2ccc3c(c2)N(C[C@@H]2CC[C@H]2[C@@H](O)C=C)C[C@@]2(CCCc4cc(Cl)ccc42)CO3)CCC1, rcm bond, 16-membered ring, Zhan Catalyst II (resin supported), DCE, 1.0 mM, 60.0 °C, 3.0 h",93%
"COC(=O)N[C@@H]1/C=C/COC(C)(C)C(=O)NS(=O)(=O)c2ccc3c(c2)N(C[C@@H]2CC[C@H]21)C[C@@]1(CCCc2cc(Cl)ccc21)CO3 [Example 251, Methyl N-[(3R,6R,7R,8E,22S)-6′-Chloro-12,12-dimethyl-13,15,15-trioxo-spiro[11,20-dioxa-15-thia-1,14-diazatetracyclo[14.7.2.03,6.019,24]pentacosa-8,16(25),17,19(24)-tetraene-22,1′-tetralin]-7-yl]carbamate]",Ki,MCL-1,1 to 100 nM
same,IC50,H929 cells,> 1000 nM
same,"ring closure, yield after HPLC","[1]; from C=CCOC(C)(C)C(=O)NS(=O)(=O)c1ccc2c(c1)N(C[C@@H]1CC[C@H]1[C@@H](C=C)NC(=O)OC)C[C@@]1(CCCc3cc(Cl)ccc31)CO2, rcm bond, 16-membered ring, Hoveyda-Grubbs II, DCE, 1.17 mM, 40.0 °C",18.4%
C[C@@H]1C(=O)NS(=O)(=O)c2ccc3c(c2)N(C[C@@H]2CC[C@H]2[C@@H](O)C=CCN1C(=O)OC(C)(C)C)C[C@@]1(CCCc2cc(Cl)ccc21)CO3,"ring closure, isolated yield",[2],36%
CC1/C=C/[C@H](O)[C@@H]2CC[C@H]2CN2C[C@@]3(CCCc4cc(Cl)ccc43)COc3ccc(cc32)S(=O)(=O)NC(=O)C(C)(C)O1 (some centres unmarked),"ring closure, isolated yield",[3],62.4%
O=C1NS(=O)(=O)c2ccc3c(c2)N(C[C@@H]2CC[C@H]2[C@@H](O)C=CCOC12CCC2)C[C@@]1(CCCc2cc(Cl)ccc21)CO3,"ring closure, isolated yield","from C=CCOC1(C(=O)NS(=O)(=O)c2ccc3c(c2)N(C[C@@H]2CC[C@H]2[C@@H](O)C=C)C[C@@]2(CCCc4cc(Cl)ccc42)CO3)CCC1, rcm bond, 16-membered ring, Hoveyda-Grubbs II, DCE, 1.46 mM, 40.0 °C, 2.0 h",66.3%
CC1/C=C\[C@H](O)[C@@H]2CC[C@H]2CN2C[C@@]3(CCCc4cc(Cl)ccc43)COc3ccc(cc32)S(=O)(=O)NC(=O)C(C)(C)O1 (some centres unmarked),"ring closure, isolated yield",[3],15.2%
CO[C@@H]1C=CCNC(=O)NS(=O)(=O)c2ccc3c(c2)N(C[C@@H]2CC[C@H]21)C[C@@]1(CCCc2cc(Cl)ccc21)CO3,"ring closure, yield after HPLC","[1]; from C=CCNC(=O)NS(=O)(=O)c1ccc2c(c1)N(C[C@@H]1CC[C@H]1[C@@H](C=C)OC)C[C@@]1(CCCc3cc(Cl)ccc31)CO2, rcm bond, 15-membered ring, Hoveyda-Grubbs II, DCE, 1.0 mM, 80.0 °C, 16.0 h",7.2% and 31%
"O=C1CC/C=C/COC[C@@H]2CC[C@H]2CN2C[C@@]3(CCCc4cc(Cl)ccc43)COc3ccc(cc32)S(=O)(=O)N1 [Example 99, (3R,6R,10E,23S)-6′-Chloro-16,16-dioxo-spiro[8,21-dioxa-16-thia-1,15-diazatetracyclo[15.7.2.03,6.020,25]hexacosa-10,17(26),18,20(25)-tetraene-23,1′-tetralin]-14-one]",Ki,MCL-1,1 to 100 nM
same,"ring closure, isolated yield","from C=CCCC(=O)NS(=O)(=O)c1ccc2c(c1)N(C[C@@H]1CC[C@H]1COCC=C)C[C@@]1(CCCc3cc(Cl)ccc31)CO2, rcm bond, 17-membered ring, Hoveyda-Grubbs II, DCM, 16.7 mM, 24.0 h",51%
same,IC50,H929 cells,> 1000 nM
"CO[C@@H]1/C=C/CCNC(=O)NS(=O)(=O)c2ccc3c(c2)N(C[C@@H]2CC[C@H]21)C[C@@]1(CCCc2cc(Cl)ccc21)CO3 [Example 106, (3R,6R,7R,8E,22S)-6′-Chloro-7-methoxy-15,15-dioxo-spiro[20-oxa-15-thia-1,12,14-triazatetracyclo[14.7.2.03,6.019,24]pentacosa-8,16,18,24-tetraene-22,1′-tetralin]-13-one]",Ki,MCL-1,1 to 100 nM
same,IC50,H929 cells,< 1000 nM
same,"ring closure, yield after HPLC","[1]; from C=CCCNC(=O)NS(=O)(=O)c1ccc2c(c1)N(C[C@@H]1CC[C@H]1[C@@H](C=C)OC)C[C@@]1(CCCc3cc(Cl)ccc31)CO2, rcm bond, 16-membered ring, Hoveyda-Grubbs II, DCE, 1.5 mM, 80.0 °C, 16.0 h",43%
CO[C@@H]1C=CCN(C(=O)OC(C)(C)C)CC2(CCC2)C(=O)NS(=O)(=O)c2ccc3c(c2)N(C[C@@H]2CC[C@H]21)C[C@@]1(CCCc2cc(Cl)ccc21)CO3,"ring closure, isolated yield","from C=CCN(CC1(C(=O)NS(=O)(=O)c2ccc3c(c2)N(C[C@@H]2CC[C@H]2[C@@H](C=C)OC)C[C@@]2(CCCc4cc(Cl)ccc42)CO3)CCC1)C(=O)OC(C)(C)C, rcm bond, 17-membered ring, Hoveyda-Grubbs II, DCE, 2.6 mM, 16.0 h",80%
"C[C@H]1C(=O)NS(=O)(=O)c2ccc3c(c2)N(C[C@@H]2CC[C@H]2COCC(=O)N1C)C[C@@]1(CCCc2cc(Cl)ccc21)CO3 [Example 196, (3R,6R,12S,22S)-6′-Chloro-11,12-dimethyl-15,15-dioxo-spiro[8,20-dioxa-15-thia-1,11,14-triazatetracyclo[14.7.2.03,6.019,24]pentacosa-16,18,24-triene-22,1′-tetralin]-10,13-dione]",Ki,MCL-1,1 to 100 nM
same,IC50,H929 cells,> 1000 nM
same,"ring closure, yield after HPLC","[1]; from CN[C@@H](C)C(=O)NS(=O)(=O)c1ccc2c(c1)N(C[C@@H]1CC[C@H]1COCC(=O)O)C[C@@]1(CCCc3cc(Cl)ccc31)CO2, amide bond, 16-membered ring, HATU/DIEA, DMF, 20.0 mM, 20.0 °C, 1.0 h",24.6%
"[2H]C1([2H])/C=C/[C@H](OC(=O)N(C)C)[C@@H]2CC[C@H]2CN2C[C@@]3(CCCc4cc(Cl)ccc43)COc3ccc(cc32)S(=O)(=O)NC(=O)C(C)(C)O1 [Example 312, [(3R,6R,7S,8E,22S)-6′-Chloro-10,10-dideuterio-12,12-dimethyl-13,15,15-trioxo-spiro[11,20-dioxa-15-thia-1,14-diazatetracyclo[14.7.2.03,6.019,24]pentacosa-8,16,18,24-tetraene-22,1′-tetralin]-7-yl] N,N-dimethylcarbamate]",Ki,MCL-1,< 1 nM
same,IC50,H929 cells,< 500 nM
